Results from ChEMBL document CHEMBL4325894, “An update on sphingosine-1-phosphate receptor 1 modulators” (Bioorg Med Chem Lett, 2018).
pEC50: −log10 of the molar value. Values belong to the compound of their own block, whether it stands above or below them.

How the values were obtained:
Homo sapiens [1] = assay: Immunosuppressive activity in RRMS patient assessed as decrease in peripheral blood lymphocytes at 20 to 40 mg, po administered as daily dose measured after 8 days relative to control; design: scale not given: the % may be the effect or the level left
IEC-6 [2] = assay: Inhibition of apoptosis in rat IEC-6 cells assessed as decrease in CPT-induced DNA fragmentation relative to control; type: functional
Homo sapiens [3] = assay: Immunosuppressive activity in human assessed as decrease in peripheral blood lymphocyte count at 30 mg/kg, po bid relative to control; type: functional; design: scale not given: the % may be the effect or the level left
[4] = Half life in human at 0.5 mg, po administered as single dose measured on day 14 by LC-MS/MS analysis; type: ADME, organism-based; conditions: in vivo
Homo sapiens [5] = organism: Homo sapiens; assay: Immunosuppressive activity in human assessed as decrease in peripheral blood lymphocytes at 1 mg measured over 2 days relative to control; type: functional; design: scale not given: the % may be the effect or the level left
Homo sapiens [6] = assay: Immunosuppressive activity in human assessed as decrease in peripheral blood lymphocyte count at 0.1 mg/kg, po qd relative to control; type: functional; design: scale not given: the % may be the effect or the level left
Homo sapiens [7] = assay: Immunosuppressive activity in po dosed human assessed as decrease in peripheral blood lymphocyte count measured after 21 days of continuous treatment; type: functional; conditions: 504 h
Homo sapiens [8] = assay: Immunosuppressive activity in po dosed human assessed as decrease in peripheral blood lymphocyte count measured after 24 hrs; type: functional
[9] = Half life in human; type: ADME
IEC-6 [10] = assay: Inhibition of apoptosis in rat IEC-6 cells assessed as decrease in CPT-induced DNA fragmentation; type: functional, cell-based
[11] = biological target: T1, Sphingosine 1-phosphate receptor 1 (Homo sapiens, UniProt P21453); assay: Activation of human recombinant S1P1 expressed in CHO cell membranes after 120 mins by GTP-gamma-35S-binding assay
T1 sequence (P21453 whole entry): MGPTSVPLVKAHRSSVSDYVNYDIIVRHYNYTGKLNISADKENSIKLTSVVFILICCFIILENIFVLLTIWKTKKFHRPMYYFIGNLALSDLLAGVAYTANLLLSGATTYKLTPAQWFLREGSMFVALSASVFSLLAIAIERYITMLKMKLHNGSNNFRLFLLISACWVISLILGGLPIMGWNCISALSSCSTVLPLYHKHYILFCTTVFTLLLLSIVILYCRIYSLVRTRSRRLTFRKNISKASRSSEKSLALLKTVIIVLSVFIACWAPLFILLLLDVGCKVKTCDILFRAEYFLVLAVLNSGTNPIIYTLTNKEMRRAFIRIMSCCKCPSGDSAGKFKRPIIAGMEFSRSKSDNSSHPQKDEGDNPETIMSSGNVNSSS

Mus musculus [12] = assay: Immunosuppressive activity in ip dosed C57BL6 mouse assessed as decrease in B220+ B lymphocyte count after 5 hrs by FACS analysis; type: functional
Mus musculus [13] = assay: Immunosuppressive activity in ip dosed C57BL6 mouse assessed as decrease in CD4+ T lymphocyte count after 5 hrs by FACS analysis; type: functional
Mus musculus [14] = assay: Immunosuppressive activity in C57BL6 mouse assessed as decrease in B220+ B lymphocyte count at 10 mg/kg, ip after 5 hrs by FACS analysis relative to control; type: functional; design: scale not given: the % may be the effect or the level left
Homo sapiens [15] = organism: Homo sapiens; assay: Selectivity for S1P1 (unknown origin) over S1P5 (unknown origin)
Mus musculus [16] = assay: Immunosuppressive activity in C57BL6 mouse assessed as decrease in CD4+ T lymphocyte count at 10 mg/kg, ip after 5 hrs by FACS analysis relative to control; type: functional; design: scale not given: the % may be the effect or the level left
Mus musculus [17] = assay: Immunosuppressive activity in ip dosed C57BL6 mouse assessed as decrease in CD8+ T lymphocyte count after 5 hrs by FACS analysis; type: functional
Mus musculus [18] = assay: Immunosuppressive activity in C57BL6 mouse assessed as decrease in CD8+ T lymphocyte count at 10 mg/kg, ip after 5 hrs by FACS analysis relative to control; type: functional; design: scale not given: the % may be the effect or the level left
[19] = biological target: T1, Sphingosine 1-phosphate receptor 1; assay: Modulation of S1P1 receptor internalization in HCtAEC assessed as S1P1 expression at 100 nM after 1 hr by FACS analysis relative to control
[20] = biological target: T1, Sphingosine 1-phosphate receptor 1; assay: Modulation of S1P1 receptor internalization in HCtAEC assessed as S1P1 expression at 1000 nM after 1 hr by FACS analysis relative to control
Homo sapiens [21] = assay: Decrease in naive T cells in human at 10 mg dosed daily for 28 days measured within 4 to 6 hrs post dose relative to control; type: functional; design: scale not given: the % may be the effect or the level left
[22] = Half life in human plasma; type: ADME, cell-free
Homo sapiens [23] = assay: Decrease in CD4+ T lymphocytes in human at 10 mg dosed daily for 28 days measured within 4 to 6 hrs post dose relative to control; type: functional; design: scale not given: the % may be the effect or the level left
Homo sapiens [24] = assay: In vivo modulatory activity at S1P1 receptor in SPMS patient assessed as reduction in newly enlarge T2 lesion at 1.25 to 2 mg, po administered as daily dose relative to control; type: functional; design: scale not given: the % may be the effect or the level left
Homo sapiens [25] = assay: Decrease in B lymphocytes in human at 10 mg dosed daily for 28 days measured within 4 to 6 hrs post dose relative to control; type: functional; design: scale not given: the % may be the effect or the level left

SMILES: CCC/N=C1/S/C(=C\c2ccc(OC[C@@H](O)CO)c(Cl)c2)C(=O)N1c1ccccc1C
Activity (Homo sapiens [1]): 62%

SMILES: CCCCCCCCc1ccc(CC[C@](N)(/C=C/P(=O)(O)O)CO)cc1
inhibition (INH) (IEC-6 [2]): 21%

SMILES: Cc1cc([C@@H](C)Nc2cccc(-c3cc(C)c(C(=O)N[C@@H](C)C(=O)O)c(C)c3)c2)ccc1Cl
Activity (Homo sapiens [3]): 75 - 85%

half-life [4]: 81.9 to 89 h
SMILES: CCCc1ccc(COc2ccc3c(c2)CCC(CN2CC(C(=O)O)C2)=C3C)c(OC)c1

half-life [9]: 168 h
SMILES: CCCCCCCCc1ccc(CCC(N)(CO)CO)cc1 [FINGOLIMOD]
Activity (Homo sapiens [5]): 38% | Activity (Homo sapiens [6]): 80 - 86% | ED50 (Homo sapiens [7]): 0.02 mg/kg | ED50 (Homo sapiens [8]): 0.041 mg/kg

pEC50 (IEC-6 [10]): 7.12
SMILES: CCCCCCCCc1ccc(CC[C@@](N)(CO)CCP(=O)(O)O)cc1
inhibition (INH) (IEC-6 [2]): 50%

pEC50 [11]: 8.92
SMILES: O=C(O)CCNCc1ccc2sc(-c3ccc(-c4ccccc4)c(C(F)(F)F)c3)cc2c1

Selectivity Index (Homo sapiens [15]): 10000
SMILES: CCOc1ccc(-c2nc(-c3cccc4c3CCC4NCCO)no2)cc1OCC (centres undefined)
ED50 (Mus musculus [12]): 1 mg/kg | ED50 (Mus musculus [13]): 0.5 mg/kg | Activity (Mus musculus [14]): 63% | Activity (Mus musculus [16]): 83% | ED50 (Mus musculus [17]): 2 mg/kg | Activity (Mus musculus [18]): 84%

half-life [9]: 19 h
SMILES: CC(C)Oc1ccc(-c2nc(-c3cccc4c3CC[C@@H]4NCCO)no2)cc1C#N [OZANIMOD]

Activity [19]: 86% | Activity [20]: 23%
SMILES: C[C@H](Oc1ccc(-c2nc(-c3ccc4[nH]cnc4c3)no2)cc1C(F)(F)F)C(F)(F)F [ASP-4058]
ED50 (Homo sapiens [7]): 0.023 mg/kg | ED50 (Homo sapiens [8]): 0.1 mg/kg

half-life [22]: 56.4 to 216 h
SMILES: CCc1cc(/C(C)=N/OCc2ccc(C3CCCCC3)c(C(F)(F)F)c2)ccc1CN1CC(C(=O)O)C1 [SIPONIMOD]
Activity (Homo sapiens [21]): 88% | Activity (Homo sapiens [23]): 88% | Activity (Homo sapiens [24]): <=80% | Activity (Homo sapiens [25]): 88%
